Assay results from patent publication US10770169B2, “Method of providing a treatment to a subject based on a dynamic pathway map” (THE REGENTS OF THE UNIVERSITY OF CALIFORNIA, priority 2010, dated 2020).
“Also recorded” adds a separate entry of the source.

Tested on: luminal, basal, claudin-low and ERBB2AMP breast cancer cell lines
Experiment: Associations of clinically relevant subtypes and response (non-parametric ANOVA or t-test on GI50 ranks)
Format: cell-based, human
Conditions: for Subtype specificity: Table 6, most sensitive subtype, FDR p<0.20
Description: A central premise of this study is that associations between responses and molecular subtypes observed in preclinical cell line analyses will be recapitulated in the clinic in instances where the predictive molecular features in the cell lines are mirrored in human tumors. We established response-subtype associations by using non-parametric ANOVAs to compare […] values across transcriptional and genomics subtypes.
Differences between GI50s of the groups were compared with a non-parametric ANOVA or t-test, as appropriate, on the ranks. We combined the p-values for the three sets of tests and used false discovery rate (FDR) to correct for multiple testing. For the three-sample test, we performed a post-hoc analysis on the compounds with a significant class effect by comparing each group to all others to determine which group was most sensitive. The p-values for the post-hoc test were FDR-corrected together. In all cases, FDR p<0.20 was deemed significant. […] Analyses were performed in R.

Row | SMILES | Subtype specificity | subtype-specific response (sensitivity by transcriptional subtype) (GI50 across subtypes)
1 | O=C1NC(=O)/C(=C/c2ccc3nccc(-c4ccncc4)c3c2)S1 [GSK1059615] | Luminal/ERBB2AMP | 
2 | COc1ncc(-c2ccc3nccc(-c4ccnnc4)c3c2)cc1NS(=O)(=O)c1ccc(F)cc1F [GSK2126458] | Luminal/ERBB2AMP | 
3 | O=C(CCCCCCC(=O)Nc1ccccc1)NO [Vorinostat] | Luminal | 
4 | N.N.[Cl][Pt][Cl] [Cisplatin] | Basal | preferential activity in basal and/or claudin-low cell lines; also recorded: basal cell lines are preferentially sensitive; also recorded: Basal breast cancer cell lines preferentially respond
